Reference: the NIST ThermoML archive (doi:10.1021/je200039y)
± gives the expanded uncertainty stated by the source. Blank lines part the entries; values can stand above or below the molecule they belong to.

Tests used:
[1] = Liquid
[2] = refractive index (Na D-line) (dimensionless); details: 298 K; 101.33 kPa; Liquid; Standard Abbe refractometry
[3] = 350.3 K, Closed cell (Static) method
[4] = 350.43 K, Closed cell (Static) method
[5] = 343.15 K, Ebulliometric method (Recirculating still)

vapor or sublimation pressure ([1]; 350.36 K, Closed cell (Static) method): 951.7 ± 4.1 kPa
SMILES: CCCC [butane]

SMILES: CSSC [2,3-dithiabutane]
vapor or sublimation pressure ([1]; 343.15 K, Closed cell (Static) method): 27.8 ± 0.4 kPa | vapor or sublimation pressure [1, 3]: 36.1 ± 0.8 kPa | vapor or sublimation pressure ([1]; 350.38 K, Closed cell (Static) method): 36 ± 0.8 kPa | vapor or sublimation pressure [1, 4]: 35.8 ± 0.8 kPa | vapor or sublimation pressure ([1]; 350.55 K, Closed cell (Static) method): 36.1 ± 0.8 kPa | refractive index [2]: 1.5226 ± 0.0007

vapor or sublimation pressure [1, 3]: 929.2 ± 4 kPa
SMILES: C/C=C/C [(E)-2-butene]

vapor or sublimation pressure [1, 5]: 72.5 ± 0.6 kPa | refractive index [2]: 1.3593 ± 0.0007
SMILES: CCO [ethanol]

vapor or sublimation pressure ([1]; 350.54 K, Closed cell (Static) method): 1269.5 ± 5.5 kPa
SMILES: CC(C)C [2-methylpropane]

SMILES: Cc1ccccc1C [1,2-dimethylbenzene]
refractive index [2]: 1.5026 ± 0.0007

vapor or sublimation pressure [1, 5]: 92.9 ± 0.7 kPa | refractive index [2]: 1.373 ± 0.0007
SMILES: CCOC(C)(C)C [2-ethoxy-2-methylpropane]

vapor or sublimation pressure [1, 4]: 1154.3 ± 5 kPa
SMILES: C=C(C)C [2-methylpropene]
